Laboratory results taken from publication PMC12203311, “Design, synthesis, in silico and in vitro evaluation of pyrrole–indole hybrids as dual tubulin and aromatase inhibitors with potent anticancer activities” (RSC Advances, 2025).

What was measured:
786-0 = assay: NCI60 five-dose screen; format: cell-based; details: Homo sapiens, 786-0, renal cancer
MDA-MB-435 = assay: NCI60 five-dose screen; format: cell-based, human; details: Homo sapiens; MDA-MB-435, melanoma
HCC-2998 = assay: NCI60 five-dose screen; format: cell-based; details: Homo sapiens, HCC-2998, colon cancer
SF-268 = assay: NCI60 five-dose screen; format: cell-based; details: Homo sapiens, SF-268, CNS cancer
TK-10 = assay: NCI60 five-dose screen; format: cell-based; details: Homo sapiens, TK-10, renal cancer
Human CYP19 (aromatase) = molecular target: T1, Human CYP19 (aromatase) (Homo sapiens, UniProt P11511); assay: Aromatase inhibition assay (DBF fluorometric substrate); format: biochemical; details: active defined as IC50 < 12.5 µM
T1 construct: purchased GENTEST, Woburn, MA 456260; host or cells: baculovirus/insect cells
T1 sequence (P11511 1-503): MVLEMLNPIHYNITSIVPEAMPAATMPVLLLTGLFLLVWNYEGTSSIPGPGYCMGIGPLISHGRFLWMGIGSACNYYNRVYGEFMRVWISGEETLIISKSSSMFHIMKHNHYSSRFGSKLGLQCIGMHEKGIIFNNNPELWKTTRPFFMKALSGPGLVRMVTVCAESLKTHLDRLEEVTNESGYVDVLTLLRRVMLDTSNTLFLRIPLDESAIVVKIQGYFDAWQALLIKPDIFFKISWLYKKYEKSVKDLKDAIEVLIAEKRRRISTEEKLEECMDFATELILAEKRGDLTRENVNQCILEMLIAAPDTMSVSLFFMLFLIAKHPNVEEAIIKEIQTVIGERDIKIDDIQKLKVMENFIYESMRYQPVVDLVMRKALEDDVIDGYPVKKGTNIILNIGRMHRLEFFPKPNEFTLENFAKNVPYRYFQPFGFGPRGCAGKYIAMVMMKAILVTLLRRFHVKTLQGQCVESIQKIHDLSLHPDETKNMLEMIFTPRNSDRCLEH
Procedure: Aromatase enzyme was purchased from GENTEST, Woburn, MA01801, USA (Supersom human CYP19+oxidoreductase, baculovirus/insect cell-expressed; Product No. 456260). The aromatase inhibitory activity was performed using Human CYP19 enzymes and DBF as a fluorometric substrate as described by Stresser, et al.[41] with minor modifications. The mixture, containing 100 µL of cofactor/serial dilution buffer was pre-incubated in 37 °C for 10 min. […] After incubation at 37 °C for 30 min, the reaction was stopped by addition of 50 µL of 2.2 M NaOH. Fluorescence signal was monitored using an excitation wavelength of 490 nm and emission wavelength of 530 nm.

OVCAR-3 = assay: NCI60 five-dose screen; format: cell-based; details: Homo sapiens, OVCAR-3, ovarian cancer
UACC-62 = assay: NCI60 five-dose screen; format: cell-based; details: Homo sapiens, UACC-62, melanoma
SNB-19 = assay: NCI60 five-dose screen; format: cell-based; details: Homo sapiens, SNB-19, CNS cancer
SNB-75 = assay: NCI60 five-dose screen; format: cell-based; details: Homo sapiens, SNB-75, CNS cancer
HL-60 (TB) = assay: NCI60 five-dose screen; format: cell-based; details: Homo sapiens, leukemia
CAKI-1 = assay: NCI60 five-dose screen; format: cell-based; details: Homo sapiens, CAKI-1, renal cancer
COLO 205 = assay: NCI60 five-dose screen; format: cell-based, human; details: Homo sapiens
NCI-H23 = assay: NCI60 five-dose screen; format: cell-based; details: Homo sapiens, NCI-H23, NSC lung cancer
DU-145 = assay: NCI60 five-dose screen; format: cell-based; details: Homo sapiens, DU-145, prostate cancer
SK-OV-3 = assay: NCI60 five-dose screen; format: cell-based; details: Homo sapiens, SK-OV-3, ovarian cancer
LOX IMVI = assay: NCI60 five-dose screen; format: cell-based; details: Homo sapiens, melanoma
MDA-MB-468 = assay: NCI60 five-dose screen; format: cell-based; details: Homo sapiens, MDA-MB-468, breast cancer
A549/ATCC = assay: NCI60 five-dose screen; format: cell-based; details: Homo sapiens, NSC lung cancer
SK-MEL-5 = assay: NCI60 five-dose screen; format: cell-based, human; details: Homo sapiens
NCI-H226 = assay: NCI60 five-dose screen; format: cell-based; details: Homo sapiens, NCI-H226, NSC lung cancer
OVCAR-5 = assay: NCI60 five-dose screen; format: cell-based; details: Homo sapiens, OVCAR-5, ovarian cancer
MALME-3M = assay: NCI60 five-dose screen; format: cell-based; details: Homo sapiens, melanoma
HS 578T = assay: NCI60 five-dose screen; format: cell-based; details: Homo sapiens, breast cancer
BT-549 = assay: NCI60 five-dose screen; format: cell-based; details: Homo sapiens, BT-549, breast cancer
[1] = read-out: LC50 (the source's name)

SMILES: O=C(N/N=C/c1ccc[nH]1)c1[nH]c2ccc(Br)cc2c1-c1ccccc1 [Derivative 3a, (E)-N′-((1H-Pyrrol-2-yl)methylene)-5-bromo-3-phenyl-1H-indole-2-carbohydrazide]
- GI50 (786-0): 0.791 µM
- CC50 (786-0; [1]): 23.9 µM
- GI50 (MDA-MB-435): 0.105 µM
- GI50 (HCC-2998): 0.415 µM
- CC50 (HCC-2998; [1]): 19.5 µM
- GI50 (SF-268): 0.995 µM
- CC50 (SF-268; [1]): 56.4 µM
- GI50 (TK-10): 2.46 µM
- CC50 (TK-10; [1]): 37.1 µM
- IC50 (Human CYP19 (aromatase)): 3.4 ± 0.6 µM
- GI50 (OVCAR-3): 0.423 µM
- CC50 (OVCAR-3; [1]): 35.3 µM
- GI50 (UACC-62): 0.099 µM
- CC50 (UACC-62; [1]): 8.03 µM
- GI50 (SNB-19): 0.416 µM
- CC50 (SNB-19; [1]): 35 µM
- GI50 (SNB-75): 0.136 µM
- CC50 (SNB-75; [1]): 16 µM
- GI50 (HL-60 (TB)): 0.242 µM
- CC50 (HL-60 (TB); [1]): > 100 µM
- GI50 (CAKI-1): 0.257 µM
- CC50 (CAKI-1; [1]): 30.9 µM
- CC50 (COLO 205; COLO 205, COLO 205, colon cancer, read-out: LC50 (the source's name)): 35.1 µM
- GI50 (COLO 205; COLO 205, colon cancer): 0.261 µM
- GI50 (NCI-H23): 0.504 µM
- CC50 (NCI-H23; [1]): 37.7 µM
- GI50 (DU-145): 0.429 µM
- CC50 (DU-145; [1]): 33.3 µM
- GI50 (SK-OV-3): 0.702 µM
- CC50 (SK-OV-3; [1]): 31.8 µM
- GI50 (LOX IMVI): 0.244 µM
- CC50 (LOX IMVI; [1]): 19 µM
- GI50 (MDA-MB-468): 0.209 µM
- CC50 (MDA-MB-468; [1]): 42.1 µM
- GI50 (A549/ATCC): 0.357 µM
- CC50 (A549/ATCC; [1]): 33.6 µM
- CC50 (SK-MEL-5; SK-MEL-5, SK-MEL-5, melanoma, read-out: LC50 (the source's name)): 15.7 µM
- GI50 (SK-MEL-5; SK-MEL-5, melanoma): 0.302 µM
- GI50 (NCI-H226): 0.323 µM
- CC50 (NCI-H226; [1]): 23.3 µM
- GI50 (OVCAR-5): 0.437 µM
- CC50 (OVCAR-5; [1]): 30.8 µM
- GI50 (MALME-3M): 0.32 µM
- CC50 (MALME-3M; [1]): 30.9 µM
- GI50 (HS 578T): 0.452 µM
- CC50 (HS 578T; [1]): > 100 µM
- GI50 (BT-549): 0.375 µM
- CC50 (BT-549; [1]): 6.39 µM
